Assay results: publication PMC4833520 (Bioorganic & medicinal chemistry, 2016)

How the values were obtained:
σ1 receptor = σ1 receptor (Cavia porcellus, UniProt Q60492); experiment: PDSP radioligand binding, σ1 receptor
[1] = molecular target: human dopamine D1 receptor (Homo sapiens, UniProt P21728); experiment: PDSP radioligand binding, dopamine D1 receptor; conditions: ratio of Ki values
Chain of human dopamine D1 receptor (P21728 whole entry): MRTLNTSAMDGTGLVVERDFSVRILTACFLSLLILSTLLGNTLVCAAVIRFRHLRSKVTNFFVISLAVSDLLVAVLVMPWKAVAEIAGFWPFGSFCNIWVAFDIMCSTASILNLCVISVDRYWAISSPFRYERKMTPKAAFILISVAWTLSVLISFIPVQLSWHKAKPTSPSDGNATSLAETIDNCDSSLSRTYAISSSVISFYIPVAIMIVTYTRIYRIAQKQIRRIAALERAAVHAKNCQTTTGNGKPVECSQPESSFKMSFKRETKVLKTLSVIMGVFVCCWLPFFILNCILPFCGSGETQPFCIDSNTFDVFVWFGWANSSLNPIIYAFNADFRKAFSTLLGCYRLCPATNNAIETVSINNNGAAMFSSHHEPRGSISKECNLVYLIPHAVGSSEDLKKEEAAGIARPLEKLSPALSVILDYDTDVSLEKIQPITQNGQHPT

Chain of σ1 receptor (Q60492 whole entry): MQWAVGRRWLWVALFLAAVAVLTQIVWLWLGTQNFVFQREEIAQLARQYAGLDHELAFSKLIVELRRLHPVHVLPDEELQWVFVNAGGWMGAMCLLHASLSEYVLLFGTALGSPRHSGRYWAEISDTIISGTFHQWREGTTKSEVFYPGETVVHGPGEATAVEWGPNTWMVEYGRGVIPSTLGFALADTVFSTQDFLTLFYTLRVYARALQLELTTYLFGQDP

CCCCCCOc1ccc2c(c1OC)CN1CCc3cc(OC)c(O)cc3C1C2 (centres unmarked) [Compound 15, 10-(Hexyloxy)-3,9-dimethoxy-5,8,13,13a-tetrahydro-6H-isoquinolino[3,2-a]isoquinolin-2-ol]
selectivity for σ1 versus σ2 receptors (σ1 receptor): approximately 3 fold

COc1cc2c(cc1O)C1Cc3ccc(OCCCO)c(OC)c3CN1CC2 (centres unmarked) [Compound 16, 10-(3-Hydroxypropoxy)-3,9-dimethoxy-5,8,13,13a-tetrahydro-6H-isoquinolino[3,2-a]isoquinolin-2-ol]
Selectivity D3/D1 [1]: 16
